These results are taken from patent publication US9783500B2, “2-aminoquinoline-based compounds for potent and selective neuronal nitric oxide synthase inhibition” (priority 2014, dated 2017).

Each structure is given as a SMILES string. Structures can show the parent of a compound that is named as a salt.

The assay addresses rat nNOS (Rattus norvegicus (Rat), UniProt P29476). The conditions noted are these: Table 1; for Selectivity n/e / Selectivity n/i: ratio of Ki values; for Selectivity n/e: bovine eNOS/rat nNOS; for Selectivity n/i: murine iNOS/rat nNOS.

Consider `Cl.Cl.Nc1ccc2ccc(CNCCc3cccc(F)c3)cc2n1` [5 (Ex. 8), 7-[(3-Fluorophenethylamino)methyl]quinolin-2-amine Dihydrochloride], for which the Selectivity n/e is recorded as 6.2. Turning to `Cl.Cl.Nc1ccc2ccc(CCNCc3cccc(F)c3)cc2n1` [6 (Ex. 12), 7-[2-(3-Fluorobenzylamino)ethyl]quinolin-2-amine Dihydrochloride], the Selectivity n/e amounted to 30 and the Selectivity n/i came out at 97.

In the case of `Cl.Cl.Nc1ccc2ccc(CCNCCc3ccc(F)cc3)cc2n1` [14 (Ex. 16), 7-[(4-Fluorophenethylamino)ethyl]quinolin-2-amine Dihydrochloride], the Selectivity n/i is reported as 280. Take `Nc1ccc2cc(CCNCCCc3cccc(F)c3)ccc2n1` [13 (Ex. 30), 6-{2-[3-(3-Fluorophenyl(propylamino)ethyl]}quinolin-2-amine Dihydrochloride]: the Ki (read-out: Ki nNOS, purified rat nNOS, Ki calculated from IC50) was 4.37 µM. For the molecule `Nc1ccc2ccc(CNCCCc3cccc(F)c3)cc2n1` [9 (Ex. 9), 7-{2-[3-(3-Fluorophenyl(propylamino)methyl]}quinolin-2-amine Dihydrochloride], the Selectivity n/e was found to be 62 and the Selectivity n/i was determined as 538.

`Cl.Cl.Nc1ccc2ccc(CCNCCc3ccc(Cl)cc3)cc2n1` [16 (Ex. 18), 7-[(4-Chlorophenethylamino)ethyl]quinolin-2-amine Dihydrochloride]: the Selectivity n/e came out at 47 and the Selectivity n/i was determined as 91.
